Data as given in patent US10161932B2, “Azetidine-substituted fluorescent compounds” (HOWARD HUGHES MEDICAL INSTITUTE, priority 2014, dated 2018).
Structures can show the parent of a compound that is named as a salt. Where two headings read alike, the source gives them in different places.

Columns and labels:
[1] = Absorption and fluorescence spectroscopy of dyes; format: physicochemical
Procedure: Phosphate buffered saline (PBS) was at pH 7.4 unless otherwise noted.
Spectroscopy was performed using 1-cm path length, 3.5-mL quartz cuvettes from Starna Cells or 1-cm path length, 1.0-mL quartz microcuvettes from Hellma. All measurements were taken at ambient temperature (22±2° C.) in 10 mM HEPES, pH 7.3 buffer unless otherwise noted. Absorption spectra were recorded on a Cary Model 100 spectrometer (Varian); reported values for extinction coefficients (ε) are averages (n=3). Fluorescence spectra were recorded on a Cary Eclipse fluorometer (Varian). Normalized spectra are shown for clarity.

[2] = Quantum yield measurement (Quantaurus-QY spectrometer); format: physicochemical; details: for increase in quantum yield / brightness relative to parent N,N-dialkyl dye: azetidine-substituted vs parent fluorophore
Procedure: All reported quantum yield values were measured in under identical conditions using a Quantaurus-QY spectrometer (C11374, Hamamatsu). Measurements were carried out using dilute samples (A<0.1) and self-absorption corrections were performed using the instrument software. Reported values are averages (n=3).

[3] = Fluorescence lifetime measurement; details: for τ: Table 2, 10 mM HEPES pH 7.3 per table footnote
Procedure: For fluorescence lifetime measurements, a pulse picker (Model 350-160, ConOptics) was placed in the laser beam to reduce the pulse frequency from 80 MHz to 20 MHz. Samples (2 μM dye diluted in 50 mM HEPES, pH 7.2, H2O, or CH3OH) were excited at 830 nm laser wavelength and 6 mW laser power. The emitted light was collected by the fast-timing APD and fed to the single-photon counting board (TimeHarp200; PicoQuant). Timing pulses were obtained from a PIN diode (DET01CFC; ThorLabs) monitoring the 20 MHz pulse train. The temporal impulse response of the system was determined by second harmonic generation of laser pulses using a thin nonlinear crystal in place of a dye sample. The lifetime decay data was fit to a single exponential decay function using a custom MATLAB program.

[4] = Table 1, trifluoroethanol containing 0.1% (v/v) trifluoroacetic acid

Row | ε ([1]; Table 1, 10 mM HEPES pH 7.3) | λem ([1]; Table 1, 10 mM HEPES pH 7.3) | λmax ([1]; Table 1, 10 mM HEPES pH 7.3) | ϕ ([2]; Table 1, 10 mM HEPES pH 7.3) | SMILES | ε (extinction coefficient) ([1]; aqueous buffer) | ϕ (quantum yield) ([2]; aqueous buffer) | ε ([1]; Table 3, 10 mM HEPES pH 7.3) | λem ([1]; Table 3, 10 mM HEPES pH 7.3) | λmax ([1]; Table 3, 10 mM HEPES pH 7.3) | ϕ ([2]; Table 3, 10 mM HEPES pH 7.3) | other results
1 | – | – | – | – | CN(C)c1ccc2c(-c3ccccc3C(=O)[O-])c3ccc(N(C)C)cc3[o+]c2c1 [TMR, tetramethylrhodamine, reference compound] | 78000 M⁻¹ cm⁻¹ | 0.41 | – | – | – | – | ε ([1]; Table 2, 10 mM HEPES pH 7.3): 78,000 M^−1 cm^−1; λem ([1]; Table 2, 10 mM HEPES pH 7.3): 572 nm; λmax ([1]; Table 2, 10 mM HEPES pH 7.3): 548 nm; ϕ ([2]; pH 7.3): 0.41; τ (fluorescence lifetime) [3]: 2.2 ns; τ [3]: 2.21 ns
2 | 111,000 M^−1 cm^−1 | 572 nm | 549 nm | 0.87 | O=C(O)CC1CN(c2ccc3c(-c4ccccc4C(=O)[O-])c4ccc(=[N+]5CC(CC(=O)O)C5)cc-4oc3c2)C1 (stereo not shown) [Example 17, 2-(3,6-Bis(3-(carboxymethyl)azetidin-1-yl)xanthylium-9-yl)benzoate] | – | – | – | – | – | – | –
3 | 94,000 M^−1 cm^−1 | 549 nm | 525 nm | 0.91 | O=C([O-])c1ccccc1-c1c2ccc(=[N+]3CC(F)(F)C3)cc-2oc2cc(N3CC(F)(F)C3)ccc12 [Example 9, 2-(3,6-Bis(3,3-difluoroazetidin-1-yl)xanthylium-9-yl)benzoate] | – | – | – | – | – | – | –
4 | – | – | – | – | O=C1OC2(c3ccc(N4CCCCC4)cc3Oc3cc(N4CCCCC4)ccc32)c2ccccc21 [piperidine derivative, reference compound] | – | – | – | – | – | – | ε ([1]; Table 2, 10 mM HEPES pH 7.3): 80,000 M^−1 cm^−1; λem ([1]; Table 2, 10 mM HEPES pH 7.3): 586 nm; λmax ([1]; Table 2, 10 mM HEPES pH 7.3): 560 nm; ϕ (quantum yield) [2]: 0.10; ϕ ([2]; pH 7.3): 0.10; τ (fluorescence lifetime) [3]: 0.6 ns; τ [3]: 0.59 ns
5 | – | 609 nm | 585 nm | 0.78 | CC1(C)C2=CC(=[N+]3CC(F)(F)C3)C=CC2=C(c2ccccc2C(=O)[O-])c2ccc(N3CC(F)(F)C3)cc21 [Example 41, 2-(3,6-Bis(3,3-difluoroazetidin-1-yl)-10,10-dimethylanthracen-9-ylium-9(10H)-yl)benzoate] | – | – | – | – | – | – | ε [1, 4]: 156,000^a M^−1 cm^−1
6 | – | – | – | – | O=C(O)c1ccccc1-c1c2ccc(=O)cc-2oc2cc(N3CCC3)ccc12 [Example 59, 2-(6-(Azetidin-1-yl)-3-oxo-3H-xanthen-9-yl)benzoic acid] | – | 0.85 | 59,000 M^−1 cm^−1 | 546 nm | 519 nm | 0.85 | increase in quantum yield / brightness relative to parent N,N-dialkyl dye [2]: 4 fold
7 | – | – | – | – | Cc1cc(=O)oc2cc(N(C)C)ccc12 [Coumarin 461, reference compound] | 18000 M⁻¹ cm⁻¹ | – | 18,000 M^−1 cm^−1 | 470 nm | 372 nm | – | ϕ (quantum yield) [2]: 0.19; ϕ ([2]; pH 7.3): 0.19
8 | 111,000 M^−1 cm^−1 | 565 nm | 542 nm | 0.57 | CN(C)C1CN(c2ccc3c(-c4ccccc4C(=O)[O-])c4ccc(N5CC(N(C)C)C5)cc4[o+]c3c2)C1 [Example 13, 2-(3,6-Bis(3-(dimethylamino)azetidin-1-yl)xanthylium-9-yl)benzoate] | – | – | – | – | – | – | –
9 | – | – | – | – | CCN(CC)c1ccc2nc3ccc(=[N+](CC)CC)cc-3oc2c1.[O-][Cl+3]([O-])([O-])[O-] [Oxazine 1, reference compound] | 111000 M⁻¹ cm⁻¹ | 0.07 | 111,000 M^−1 cm^−1 | 669 nm | 655 nm | 0.07 | –
10 | – | – | – | – | O=C(O)c1cc2ccc(N3CCC3)cc2oc1=O [Example 51, 7-(Azetidin-1-yl)-2-oxo-2H-chromene-3-carboxylic acid] | 24000 M⁻¹ cm⁻¹ | 0.84 | 24,000 M^−1 cm^−1 | 470 nm | 387 nm | 0.84 | increase in quantum yield / brightness relative to parent N,N-dialkyl dye [2]: ~30 fold
11 | 108,000 M^−1 cm^−1 | 568 nm | 545 nm | 0.87 | O=C([O-])c1ccccc1-c1c2ccc(=[N+]3CC(C(=O)O)C3)cc-2oc2cc(N3CC(C(=O)O)C3)ccc12 (stereo not shown) [Example 16, 2-(3,6-Bis(3-carboxyazetidin-1-yl)xanthylium-9-yl)benzoate] | – | – | – | – | – | – | –
12 | – | – | – | – | c1cc2cc3ccc(N4CCC4)cc3nc2cc1N1CCC1 [Example 60, 3,6-Di(azetidin-1-yl)acridine] | – | 0.52 | 47,000 M^−1 cm^−1 | 531 nm | 492 nm | 0.52 | increase in quantum yield / brightness relative to parent N,N-dialkyl dye [2]: 2.5 fold
13 | – | – | – | – | Cc1cc(=O)oc2cc(N3CCC3)ccc12 [Example 49, 7-(Azetidin-1-yl)-4-methyl-2H-chromen-2-one] | 15000 M⁻¹ cm⁻¹ | 0.96 | 15,000 M^−1 cm^−1 | 467 nm | 354 nm | 0.96 | increase in quantum yield / brightness relative to parent N,N-dialkyl dye [2]: five-fold
14 | – | – | – | – | c1cc2nc3ccc(=[N+]4CCC4)cc-3oc2cc1N1CCC1 [Example 61, 3,7-Di(azetidin-1-yl)phenoxazin-5-ium trifluoroacetate] | 99000 M⁻¹ cm⁻¹ | 0.24 | 99,000 M^−1 cm^−1 | 661 nm | 647 nm | 0.24 | increase in quantum yield / brightness relative to parent N,N-dialkyl dye [2]: 3.4 fold
15 | – | – | – | – | CN(C)c1ccc2c(c1)Oc1cc(O)ccc1C21OC(=O)c2ccccc21 (stereo not shown) [dimethyl rhodol, reference compound] | 60000 M⁻¹ cm⁻¹ | – | 60,000 M^−1 cm^−1 | 546 nm | 518 nm | – | ϕ (quantum yield) [2]: 0.21; ϕ ([2]; pH 7.3): 0.21
16 | 110,000 M^−1 cm^−1 | 572 nm | 550 nm | 0.83 | CC1(C)CN(c2ccc3c(-c4ccccc4C(=O)[O-])c4ccc(=[N+]5CC(C)(C)C5)cc-4oc3c2)C1 [Example 8, 2-(3,6-Bis(3,3-dimethylazetidin-1-yl)xanthylium-9-yl)benzoate] | – | – | – | – | – | – | –
17 | – | – | – | – | CN(C)c1ccc2cc3ccc(N(C)C)cc3nc2c1 [Acridine Orange, reference compound] | – | 0.21 | 50,000 M^−1 cm^−1 | 528 nm | 493 nm | 0.21 | –
18 | 108,000 M^−1 cm^−1 | 557 nm | 533 nm | 0.89 | N#CC1CN(c2ccc3c(-c4ccccc4C(=O)[O-])c4ccc(=[N+]5CC(C#N)C5)cc-4oc3c2)C1 (stereo not shown) [Example 12, 2-(3,6-Bis(3-cyanoazetidin-1-yl)xanthylium-9-yl)benzoate] | – | – | – | – | – | – | –
19 | 113,000 M^−1 cm^−1 | 560 nm | 536 nm | 0.87 | O=C([O-])c1ccccc1-c1c2ccc(=[N+]3CC(F)C3)cc-2oc2cc(N3CC(F)C3)ccc12 (stereo not shown) [Example 10, 2-(3,6-Bis(3-fluoroazetidin-1-yl)xanthylium-9-yl)benzoate] | – | – | – | – | – | – | –
20 | 109,000 M^−1 cm^−1 | 564 nm | 541 nm | 0.88 | COC1CN(c2ccc3c(-c4ccccc4C(=O)[O-])c4ccc(=[N+]5CC(OC)C5)cc-4oc3c2)C1 (stereo not shown) [Example 11, 2-(3,6-Bis(3-methoxyazetidin-1-yl)xanthylium-9-yl)benzoate] | – | – | – | – | – | – | –

Row | SMILES | ε ([1]; Table 1, 10 mM HEPES pH 7.3) | λem ([1]; Table 1, 10 mM HEPES pH 7.3) | λmax ([1]; Table 1, 10 mM HEPES pH 7.3) | ϕ ([2]; Table 1, 10 mM HEPES pH 7.3) | ε (extinction coefficient) ([1]; aqueous buffer) | ϕ (quantum yield) ([2]; aqueous buffer) | ε ([1]; Table 3, 10 mM HEPES pH 7.3) | λem ([1]; Table 3, 10 mM HEPES pH 7.3) | λmax ([1]; Table 3, 10 mM HEPES pH 7.3) | ϕ ([2]; Table 3, 10 mM HEPES pH 7.3) | other results
21 | CC1(C)C2=CC(=[N+]3CCC3)C=CC2=C(c2ccccc2C(=O)[O-])c2ccc(N3CCC3)cc21 [Example 40, 2-(3,6-Di(azetidin-1-yl)-10,10-dimethylanthracen-9-ylium-9(10H)-yl)benzoate] | 99,000 M^−1 cm^−1 | 631 nm | 608 nm | 0.67 | 99000 M⁻¹ cm⁻¹ | 0.67 | 99,000 M^−1 cm^−1 | 631 nm | 608 nm | 0.67 | –
22 | O=C([O-])c1ccccc1-c1c2ccc(=[N+]3CCC3)cc-2oc2cc(N3CCC3)ccc12 [Example 7, 2-(3,6-Di(azetidin-1-yl)xanthylium-9-yl)benzoate] | 101,000 M^−1 cm^−1 | 571 nm | 549 nm | 0.88 | – | 0.88 | – | – | – | – | ε ([1]; Table 2, 10 mM HEPES pH 7.3): 101,000 M^−1 cm^−1; λem ([1]; Table 2, 10 mM HEPES pH 7.3): 571 nm; λmax ([1]; Table 2, 10 mM HEPES pH 7.3): 549 nm; higher extinction coefficient than the other dyes ([1]; rhodamines of Table 2): ~30%; ϕ ([2]; Table 2, 10 mM HEPES pH 7.3): 0.88; brighter than the pyrrolidine derivative ([2]; one-photon excitation): 60%; τ (fluorescence lifetime) [3]: 3.8 ns; τ [3]: 3.84 ns
23 | C[Si]1(C)C2=CC(=[N+]3CCC3)C=CC2=C(c2ccccc2C(=O)[O-])c2ccc(N3CCC3)cc21 [Example 30, 2-(3,7-Di(azetidin-1-yl)-5,5-dimethyldibenzo[b,e]silin-10-ylium-10(5H)-yl)benzoate] | – | 664 nm | 646 nm | 0.54 | – | 0.54 | – | 664 nm | 646 nm | 0.54 | ε ([1]; Table 1, ethanol containing 0.1% (v/v) trifluoroacetic acid): 152,000^b M^−1 cm^−1; ε ([1]; Table 3, ethanol containing 0.1% v/v trifluoroacetic acid): 152,000^a M^−1 cm^−1; ε (extinction coefficient) ([1]; acidic ethanol): 152000 M⁻¹ cm⁻¹; λmax ([1]; text b257, unit not given): 646
24 | C[Si]1(C)C2=CC(=[N+]3CC(F)C3)C=CC2=C(c2ccccc2C(=O)[O-])c2ccc(N3CC(F)C3)cc21 (stereo not shown) [Example 31, 2-(3,7-Bis(3-fluoroazetidin-1-yl)-5,5-dimethyldibenzo[b,e]silin-10-ylium-10(5H)-yl)benzoate] | – | 652 nm | 635 nm | 0.56 | – | – | – | – | – | – | ε [1, 4]: 167,000^a M^−1 cm^−1
